# Results from patent US7491827B2, “Aryl sulfonamides useful as inhibitors of chemokine receptor activity” (Millennium Pharmaceuticals, Inc., priority 2003, dated 2009).
# Target: T1, cloned human CCR8 receptor stably expressed in L1.2 cells (Homo sapiens, UniProt P51685)
# T1 construct: expressed in transfected cells
# Assay: whole cell binding screen: inhibition of biotinylated human I309 binding to CCR8 (FMAT 8100 HTS)
# Conditions: Ki of compounds to inhibit I-309 binding to CCR8, L1.2/hCCR8 cells, biotinylated human I-309, 10 point concentration response starting at 10 μM
# Summary of the method: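 L1.2 murine pre-B cells stably expressing human CCR8 (4.0×10^5 cells/mL) in HBSS/HEPES/fatty-acid-free BSA/azide buffer were mixed with biotinylated human I309 and compounds for 0.5 h, read by FMAT fluorescence. 10-point curves from 10 μM final; percent inhibition normalized to no-inhibitor and 100 nM unlabeled I309 controls.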
# T1 sequence (P51685 whole entry): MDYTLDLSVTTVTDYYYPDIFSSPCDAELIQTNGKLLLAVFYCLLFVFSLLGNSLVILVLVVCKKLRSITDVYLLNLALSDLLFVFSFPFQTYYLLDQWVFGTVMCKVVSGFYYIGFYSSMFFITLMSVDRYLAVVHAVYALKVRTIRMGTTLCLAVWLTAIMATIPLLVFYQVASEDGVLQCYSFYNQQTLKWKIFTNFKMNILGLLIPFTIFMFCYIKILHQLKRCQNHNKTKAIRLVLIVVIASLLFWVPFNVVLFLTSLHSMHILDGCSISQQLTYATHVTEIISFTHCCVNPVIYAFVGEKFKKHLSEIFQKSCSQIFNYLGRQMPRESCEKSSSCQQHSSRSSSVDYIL
row,SMILES,Ki [nM]
1,"CCCNC(=O)N1CCC(NS(=O)(=O)c2ccc(NC(=O)c3ccccc3C)c3ccccc23)CC1 [Compound C-45, 4-[4-(2-Methyl-benzoylamino)-naphthalene-1-sulfonylamino]-piperidine-1-carboxylic acid propylamide]",< 500
2,"CCCC(=O)N1CCC(NS(=O)(=O)c2ccc(NC(=O)C3CCCC3)c3ccccc23)CC1 [Compound D-18, Cyclopentanecarboxylic acid [4-(1-butyryl-piperidin-4-ylsulfamoyl)-naphthalen-1-yl]-amide]",< 500
3,"Cc1ccccc1C(=O)Nc1ccc(S(=O)(=O)NC2CCN(C(=O)CO)CC2)c2ccccc12 [Compound C-121, N-{4-[1-(2—Hydroxy-acetyl)-piperidin-4-ylsuffamoyl]-naphthalen-1-yl}-2-methyl-benzamide]",< 500
4,"Cc1ccccc1C(=O)Nc1ccc(S(=O)(=O)NC2CCN(C(=O)C(C)C)CC2)c2ccccc12 [Compound C-51, N-[4-(1-Isobutyryl-piperidin-4-ylsuffamoyl)-naphthalen-1-yl]-2-methyl-benzamide]",< 500

# Same assay, conditions: L1.2/hCCR8 cells, biotinylated human I-309, 10 point concentration response starting at 10 μM; read-out: Ki of compounds to inhibit I-309 binding to CCR8
row,SMILES,Ki [nM]
1,"Cc1ccccc1C(=O)Nc1ccc(S(=O)(=O)NC2CCN(C(=O)OC(C)C)CC2)c2c1CCC2 [Compound H-70, 4-[7-(2-Methyl-benzoylamino)-indane-4-sulfonylamino]-piperidine-1-carboxylic acid isopropyl ester]",< 500
2,"CCc1ccc(NS(=O)(=O)c2ccc3cccc(NC(=O)c4ccccc4)c3c2)cc1 [Compound H-49, N-[7-(4-Ethyl-phenylsulfamoyl)-naphthalen-1-yl]-benzamide]",< 30000
3,"CCOC(=O)N1CCC(NS(=O)(=O)c2ccc(CNCc3ccco3)c3ccccc23)CC1 [Compound G-13, 4-(4-{[(Furan-2-ylmethyl)-amino]-methyl}-naphthalene-1-sulfonylamino)-piperidine-1-carboxylic acid ethyl ester]",< 500
4,"Cc1ccccc1C(=O)Nc1ccc(S(=O)(=O)N[C@H]2CCN(C(=O)[C@H](C)N)C[C@@H]2C)c2ccccc12 [Compound J-2, (3S, 4S)-N-{4-[1-(2-(S)-Amino-propionyl)-3-methyl-piperidin-4-ylsulfamoyl]-naphthalen-1-yl}-2-methyl-benzamide]",< 500
5,"Cc1ccccc1C(=O)Nc1ccc(S(=O)(=O)N[C@H]2CCN(C(=O)[C@H]3CCCN3)C[C@H]2C)c2ccccc12 [Compound J-7, (3R, 4S)-2-Methyl-N-{4-[3-methyl-1-((R)pyrrolidine-2-carbonyl)-piperidin-4-ylsuffamoyl]-naphthalen-1-yl}-benzamide]",< 500
6,Cc1ccccc1C(=O)Nc1ccc(S(=O)(=O)N[C@@H]2CCNC[C@H]2C)c2ccccc12 [Compound J-54],< 5000
7,"CCc1ccc(NS(=O)(=O)c2ccc(NC(=O)c3ccccc3)c3ccccc23)cc1 [Compound A-26, N-[4-(4-Ethyl-phenylsulfamoyl)-naphthalen-1-yl]-benzamide]",< 500
8,"CCOC(=O)N1CCC(NS(=O)(=O)c2cccc3c(NC(=O)c4ccc(C)cc4)cccc23)CC1 [Compound H-15, 4-[5-(4-Methyl-benzoylamino)-naphthalene-1-sulfonylamino]-piperidine-1-carboxylic acid ethyl ester]",< 1000
9,"CCCC(=O)N1CCC(NS(=O)(=O)c2ccc(NC(=O)c3ccc(Cl)cc3Cl)c3ccccc23)CC1 [Compound C-111, N-[4-(1-Butyryl-piperidin-4-ylsulfamoyl)-naphthalen-1-yl]-2,4-dichloro-benzamide]",< 500
10,"CCNC(=O)N1CCC(NS(=O)(=O)c2ccc(NC(=O)c3ccccc3F)c3ccccc23)CC1 [Compound C-100, 4-[4-(2-Fluoro-benzoylamino)-naphthalene-1-sulfonylamino]-piperidine-1-carboxylic acid ethylamide]",< 500
11,"O=C(Nc1ccc(S(=O)(=O)Nc2ccncc2)c2ccccc12)c1ccccc1 [Compound A-14, N-[4-(Pyridin-4-ylsulfamoyl)-naphthalen-1-yl]-benzamide]",< 500
12,"CC(C)(C)OC(=O)N1CCC(NS(=O)(=O)c2ccc(NC(=O)c3ccccc3F)c3ccccc23)CC1 [Compound B-15, 4-[4-(2-Fluoro-benzoylamino)-naphthalene-1-sulfonylamino]-piperidine-1-carboxylic acid tert-butyl ester]",< 500
13,"O=C(Nc1ccc(S(=O)(=O)Nc2ccc(C(F)(F)F)cc2)c2ccccc12)c1ccccc1 [Compound A-30, N-[4-(4-Trifluoromethyl-phenylsulfamoyl)-naphthalen-1-yl]-benzamide]",< 30000
14,"Cc1ccccc1NC(=O)c1cccc2c(S(=O)(=O)NC3CCN(C(=O)N(C)C)CC3)cccc12 [Compound H-32, 4-(5-o-Tolylcarbamoyl-naphthalene-1-sulfonylamino)-piperidine-1-carboxylic acid dimethylamide]",< 500
15,"Cc1cccc(NC(=O)c2ccc(S(=O)(=O)NC3CCNCC3)c3ccccc23)c1C [Compound F-16, 4-(Piperidin-4-ylsulfamoyl)-naphthalene-1-carboxylic acid (2,3-dimethyl-phenyl)-amide]",< 30000
16,"CCOC(=O)[C@@H]1CN(Cc2ccccc2)CC[C@H]1NS(=O)(=O)c1ccc(NC(=O)c2ccccc2C)c2ccccc12 (racemic) [Compound A-48, (±)-(trans)-1-Benzyl-4-[4-(2-methyl-benzoylamino)-naphthalene-1-sulfonylamino]-piperidine-3-carboxylic acid ethyl ester]",< 30000
17,"Cc1ccccc1C(=O)Nc1ccc(S(=O)(=O)NC2CCNC2)c2ccccc12 (racemic) [Compound C-48, (±)-2-Methyl-N-[4-(pyrrolidin-3-ylsulfamoyl)-naphthalen-1-yl]-benzamide]",< 500
18,"COc1ccc(NS(=O)(=O)c2ccc(NC(=O)C3CCCCC3)c3ccccc23)cc1 [Compound B-4, Cyclohexanecarboxylic acid [4-(4-methoxy-phenylsulfamoyl)-naphthalen-1-yl]-amide]",< 500
19,"CC(C)c1ccc(NS(=O)(=O)c2ccc(NC(=O)c3ccccc3)c3ccccc23)cc1 [Compound A-28, N-[4-(4-Isopropyl-phenylsulfamoyl)-naphthalene-1-yl]-benzamide]",< 500
20,"CC(C)(C)OC(=O)N1CCC(NS(=O)(=O)c2ccc(C(=O)Nc3ccccc3Cl)c3ccccc23)CC1 [Compound F-14, 4-[4-(2-Chloro-phenylcarbamoyl)-naphthalene-1-sulfonylamino]-piperidine-1-carboxylic acid tert-butyl ester]",< 1000
21,"CCOC(=O)N1CCCC(NS(=O)(=O)c2ccc(NC(=O)c3ccccc3C)c3ccccc23)C1 (racemic) [Compound C-115, (±)-3-[4-(2-Methyl-benzoylamno)-naphthalene-1-sulfonylamino]-piperidine-1-carboxylic acid ethyl ester]",< 500
